From article PMC10294875, “Ether Derivatives of Naringenin and Their Oximes as Factors Modulating Bacterial Adhesion” (Antibiotics, 2023)
Each block holds one compound with its values, some of them ahead of it.

Assays:
[1] = tested on: Enterococcus faecalis (ATCC 29212); experiment: Bioflux microfluidic adhesion: E. faecalis to HT-29 cell line; assay type: cell-based; details: 50 µg/mL, control 1.55 ± 0.15
Experimental: (§1) Determination of the impact of a dynamic medium flow on the adhesive capacity of bacteria was performed using the Bioflux 1000Z (Fluxion, San Francisco, CA, USA) with a coupled microscope environmental chamber (Pecton Incubator XL S1, Carl Zeiss, Jena, Germany), enabling the maintenance of 37 °C and microaerophilic conditions. At the very beginning, all channels of dedicated microfluidic plates (Fluxion, San Francisco, CA, USA) were flushed with 100 µL of αMEM or DMEM high-glucose medium with supplements (further named “cell line medium”; for details of the supplementation see “Cell culture procedure”) applying an intensive flow of 10 dyne/cm^2 for 10 s. After unblocking the lumen of the channels, the inlet and outlet wells were emptied, and 20 µL of 100 µg/mL fibronectin solution (Sigma-Aldrich, Taufkirchen, Germany) was added to each inlet channel. The medium was turned in the outlet direction at a flow rate of 1 dyne/cm^2 for 1 min. After this step, the plate was left for a 1 h incubation period to allow fibronectin to be absorbed on the surface of the microcapillaries. […] After completing this stage, photographs of the microcapillaries containing the tested biological materials were taken using an inverted fluorescence microscope (GabH, Jena, Germany) and the Bioflux Montage software (Fluxion, San Francisco, CA, USA). […]

3T3-L1 cell line = experiment: SRB assay, antiproliferative activity against 3T3-L1; assay type: cell-based, mouse; details: Mus musculus; 2 h incubation, SRB assay, 3T3-L1
Experimental: (§2) The human adenocarcinoma cell line, HT-29 (ATCC HTB-38), was cultured in αMEM medium (IITD PAN) supplemented with 10% fetal bovine serum, FBS (Sigma-Aldrich, Taufkirchen, Germany), 100 U/mL penicillin, 100 µg/mL streptomycin antibiotic solution (Sigma-Aldrich, Taufkirchen, Germany), and 2 mM glutamine solution (Sigma-Aldrich, Taufkirchen, Germany). Cells from less than 20 passages were used for the study. In turn, preadipocytes from mouse embryos with the morphology of fibroblast cells, line 3T3-L1 (ATCC CL-173), were cultured in DMEM high-glucose medium (Life Technologies Corporation, Carlsbad, CA, USA) with the same supplements as above. Cells from less than 14 passages were used for the study. Both tested cell lines were grown at 37 °C in 5% CO2.
(§3) The effect of O-alkyl derivatives of naringenin and their oximes on eukaryotic cells was checked using a slightly modified SRB test described earlier. Firstly, HT-29 (1 × 10^5 cells/mL) and 3T3-L1 (5 × 10^4 cells/mL) cell lines were incubated in adherent microtiter plates under the conditions described above. The cells were then treated for 2 h with the tested compounds 1a–10a and 1b–10b at concentrations of 1, 5, 10, 25, 50, 75, and 100 µg/mL each. After this time, the medium was removed and replaced with one containing 50% (wt/vol) trichloroacetic acid (TCA; Sigma-Aldrich, Taufkirchen, Germany). Following 1 h of incubation at 4 °C, the plate was rinsed with water, and then an acidic solution of 0.4% sulforhodamine B (SRB) (Sigma-Aldrich, Taufkirchen, Germany), was added to the dried wells and incubated in the dark for half an hour. At the end of this time, the SRB solution was replaced by 1% (vol/vol) acetic acid, and the stained protein precipitate was dissolved in 10 mM Tris base solution (pH 10.5). Absorbance was measured at 560 nm in a plate reader (GloMax Discover Microplate Reader, Promega).
(§4) The cytotoxic effect of O-alkyl derivatives of naringenin and their oximes on eukaryotic cells was expressed as the concentration of the tested compounds at which 50% growth inhibition of the tested cell lines was observed. Values were presented in the form of the survival index (SI)–IC50. All determinations were repeated in three independent experiments, each performed in three technical replicates. Moreover, the effect of DMSO (Sigma-Aldrich, Taufkirchen, Germany), the solvent present in all the initial solutions of the tested compounds, on the growth of the cell lines used in the study was also verified.

[2] = tested on: Escherichia coli K12 (ATCC 10798); experiment: Bioflux microfluidic adhesion: E. coli to 3T3-L1 cell line; assay type: cell-based; details: 50 µg/mL, control 0.37 ± 0.13
Experimental: as §1

HT-29 cell line = experiment: SRB assay, antiproliferative activity against HT-29; assay type: cell-based, human; details: Homo sapiens; 2 h incubation, SRB assay, HT-29
Experimental: as §2, §3, §4

[3] = tested on: Escherichia coli K12 (ATCC 10798); experiment: Adhesion assay, static conditions: E. coli to 3T3-L1 cell line; assay type: cell-based
Experimental: The study used two reference strains, Escherichia coli K12 (ATCC 10798) and Enterococcus faecalis (ATCC 29212), obtained from the American Type Culture Collection. Both strains were stored in trypticase soy broth (TSB; OXOID, Basingstoke, UK) with the addition of 30% glycerol at −70 °C in the museum resources of the Department of Microbiology at the Wroclaw Medical University.
For studies determining the interaction of bacteria with eukaryotic cells, suspensions of the tested strains were prepared in Luria broth (LB, Becton, Dickinson and Company, USA) medium with a bacterial density of 6 × 10^8 CFU/mL.
The adhesion ability of the tested bacterial strains to HT-29 and 3T3-L1 cell lines was determined by an in vitro adhesion assay as described previously. Eukaryotic cells were infected with prokaryotic cells in the presence of the examined compounds in pre-selected concentrations at an MOI (multiplicity of infection) ratio of 50. Cells were exposed to the tested strains and compounds for 2 h. After this time, unbound bacteria were removed by washing with PBS (Life Technologies Corporation, Carlsbad, CA, USA). The lysates acquired by cell lysis (0.5% Triton X-100 in LB): 90 min, 37 °C, 5% CO2 atmosphere, were then seeded onto TSA and MC media for E. faecalis and E. coli, respectively. The assays were performed in at least three independent experiments (cells from subsequent passages), each in triplicate. A control without tested compounds was set for each strain.

[4] = tested on: Enterococcus faecalis (ATCC 29212); experiment: Bioflux microfluidic adhesion: E. faecalis to 3T3-L1 cell line; assay type: cell-based; details: 50 µg/mL, control 0.29 ± 0.11
Experimental: as §1

[5] = tested on: Escherichia coli K12 (ATCC 10798); experiment: Bioflux microfluidic adhesion: E. coli to HT-29 cell line; assay type: cell-based; details: 50 µg/mL, control 0.65 ± 0.07
Experimental: as §1

cell membranes = tested on: cell membranes; set-up: method as in PMID 10839220; details: cited from earlier work

SMILES: CCCCCCCCCOc1ccc([C@@H]2CC(=NO)c3c(O)cc(OCCCCCCCCC)cc3O2)cc1 [Compound 8b, 7,4’-di-O-nonylnaringenin oxime]
- BB/EC ratio [1]: 1.36 ± 0.08
- IC50 (3T3-L1 cell line): > 100 µg/mL
- BB/EC ratio (area of bacterial biomass adhered to the surface of the eukaryotic cells) [2]: 0.6 ± 0.12
- IC50 (HT-29 cell line): > 100 µg/mL
- effect on adhesion of E. coli to 3T3-L1 (in words) [3]: strongly enhance
- BB/EC ratio [4]: 0.28 ± 0.15
- BB/EC ratio [5]: 1.03 ± 0.06

- IC50 (HT-29 cell line): > 100 µg/mL
SMILES: O=C1C[C@@H](c2ccc(O)cc2)Oc2cc(O)cc(O)c21 [NG, naringenin]
- IC50 (3T3-L1 cell line): > 100 µg/mL
- concentration at which the membrane-solidifying effect is revealed (cell membranes): ≥ 2.5 µg/mL
